# Where two headings read alike, the source gives them in different places.
# Assays:
# [1] = system: Stat3; test: Stat3 DNA-binding activity, EMSA of nuclear extracts, Panc-1; format: cell-based, human; conditions: for constitutive Stat3 DNA-binding activity: Panc-1, 24 h treatment; for constitutively-active Stat3 DNA-binding activity: first 30 min to 1 h of treatment
# Protocol: (§1) Nuclear Extract Preparation and Gel Shift Assays.
# (§2) Nuclear extract preparation and DNA-binding with electrophoretic mobility shift assay (EMSA) were carried out, as previously reported (14, 15). The ^32P-labeled oligonucleotide probes used were hSIE (high affinity sis-inducible element from the c-fos gene, m67 variant), 5′-[…]; (SEQ ID NO:1) that binds Stat1 and Stat3 (Wagner et al., 1990) and the MGFe (mammary gland factor element from the bovine β-casein gene promoter, 5′-[…]; (SEQ ID NO:2) that binds Stat1 and Stat5 (Gouilleux et al., 1995; Seidel et al., 1995).
# [2] = system: Stat3; test: Stat3 DNA-binding activity, EMSA of nuclear extracts, Colo-357; format: cell-based, human
# Protocol: as §1, §2
# [3] = system: Panc-1 and Colo-357 cells; test: Colony survival assay; format: cell-based, human; conditions: 500 cells per dish, treated once for 48 h
# Protocol: Single-cell suspension of Panc-1 and Colo-357 cells were seeded in 6-cm dishes (500 cells per well) and assayed as previously reported (19), treated the next day with inhibitors for 48 h, and allowed to grow until large colonies were visible. Colonies were stained with crystal violet for 4 h and counted under phase-contrast microscope.
# [4] = system: Panc-1 or Colo-357 cells; test: Viable cell count by trypan blue exclusion/phase-contrast microscopy; format: cell-based, human
# Description: (§3) Cell Proliferation Viability Assay and Annexin V Binding and Flow Cytometry.
# (§4) Viable cells were counted by trypan blue exclusion/phase contrast microscopy or assessed by CyQuant cell viability assay, according to manufacturer's (Invitrogen) instructions, or cells were processed for Annexin V binding (BD Biosciences) with flow cytometry for apoptosis.
# [5] = system: Colo-357 cells; test: CyQuant cell proliferation/viability assay, Colo-357; format: cell-based; conditions: Homo sapiens
# Description: as §3, §4
# [6] = system: Panc-1 and Colo-357 cells; test: CyQuant cell proliferation/viability assay, statements for both lines
# Description: as §3, §4
# [7] = system: Panc-1 cells; test: CyQuant cell proliferation/viability assay, Panc-1; format: cell-based; conditions: Homo sapiens
# Description: as §3, §4
# [8] = system: pErk1/pErk2MAPK and pAkt; test: Immunoblotting for pErk1/pErk2MAPK and pAkt (control studies); format: cell-based, human; conditions: Panc-1 and Colo-357 cells (data not shown)
# Protocol: (§5) SDS-PAGE/Western Blot Analysis.
# (§6) Western blotting analysis was performed as previously described (15, 18). Primary antibodies used were anti-Stat3 (C20) (Santa Cruz, Santa Cruz, Calif.), anti-pY845EGFR (Upstate Biotech, Millipore, Billerica, Mass.), and antibodies against pY705Stat3, Stat3, pY1068EGFR, pY1086EGFR, pY1173EGFR, EGFR, pY416Src, Src, c-Myc, and β-Actin from Cell Signaling (Danvers, Mass.). Inhibitors
# [9] = biological target: T1, Src (Homo sapiens, UniProt P12931); test: Immunoblotting of whole-cell lysates for pY416Src; format: cell-based; conditions: immunoblot, 1 h and 24 h treatment or siRNA knockdown
# T1 construct: endogenous in cells; host or cells: Panc-1 and Colo-357 human pancreatic cancer cells
# Protocol: as §5, §6
# Small-Interfering RNA (siRNA) Transfection.
# siRNA sequences for EGFR and Src were ordered from Dharmacon RNAi Technologies, Thermo Scientific (Lafayette, Colo.).
# [10] = 1 μM ZD, 100 nM Das, or 50 μM S3I-201 alone, 24 h
# [11] = COLO357, inhibitor alone, 48-h treatment, read-out: IC50 against Colo-357 viability
# [12] = 48-h treatment with each inhibitor alone
# [13] = PANC-1, inhibitor alone, 48-h treatment, read-out: IC50 against Panc-1 viability
# T1 sequence (P12931 whole entry): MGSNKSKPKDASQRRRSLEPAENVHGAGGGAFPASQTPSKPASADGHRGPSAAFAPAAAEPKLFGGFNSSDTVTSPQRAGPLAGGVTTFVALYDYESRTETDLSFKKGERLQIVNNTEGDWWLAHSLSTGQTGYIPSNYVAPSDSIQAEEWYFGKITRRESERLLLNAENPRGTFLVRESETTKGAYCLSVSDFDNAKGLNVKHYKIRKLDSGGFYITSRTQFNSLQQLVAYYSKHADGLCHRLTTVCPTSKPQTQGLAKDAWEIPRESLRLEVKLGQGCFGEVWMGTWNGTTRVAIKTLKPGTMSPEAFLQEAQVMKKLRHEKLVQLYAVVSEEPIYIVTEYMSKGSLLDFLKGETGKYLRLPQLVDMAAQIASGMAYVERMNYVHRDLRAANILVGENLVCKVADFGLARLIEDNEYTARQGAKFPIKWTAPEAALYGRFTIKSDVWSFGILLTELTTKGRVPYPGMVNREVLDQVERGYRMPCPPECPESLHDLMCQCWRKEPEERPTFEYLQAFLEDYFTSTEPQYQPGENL
constitutive Stat3 DNA-binding activity [1],constitutively-active Stat3 DNA-binding activity [1],Stat3 DNA-binding activity [2],"IC50 [5, 11]","IC50 [7, 13]",Compound,colony numbers [3],"cell viability (viable cell count) [4, 10]",cell viability (viable cell count) ([4]; treatment for 48 to 96 h),"viable cell numbers (fluorescent unit, FU) [6, 12]",pErk1/pErk2MAPK and pAkt levels [8],further results
moderately inhibited,early repression,,,,CC(C)(C)c1cc(/C=C(\C#N)C(N)=S)cc(C(C)(C)C)c1O [AG879],,,,,,
rebounded,early repression,inhibited,0.09 µM,0.1 µM,"Cc1nc(Nc2ncc(C(=O)Nc3c(C)cccc3Cl)s2)cc(N2CCN(CCO)CC2)n1 [Das, Dasatinib]",reduced colony numbers,minimally affected,progressively decreased,decreased viable cell numbers,neither of which was significantly affected,"IC50 ([5]; COLO357, read-out: IC50 of Das against Colo-357 viability, concurrent treatment with S3I-201, 48-h treatment): 0.008 µM; sensitivity of both cell lines to S3I-201 ([6]; co-treatment with Das or ZD, 48 h): increased the sensitivity; IC50 ([7]; PANC-1, read-out: IC50 of Das against Panc-1 viability, concurrent treatment with S3I-201, 48-h treatment): 0.006 µM"
rebounded,early repression,,,,C=CC(=O)Nc1cc2c(Nc3cccc(Br)c3)ncnc2cc1OCCCN1CCOCC1 [PD169],,,,,,pY416Src level (Src activity) [9]: no detectable changes
,,,45 µM,40 µM,Cc1ccc(S(=O)(=O)OCC(=O)Nc2ccc(C(=O)O)c(O)c2)cc1 [S3I-201],reduced colony numbers,minimally affected,progressively decreased,,,"IC50 ([5]; COLO357, 48 h, read-out: IC50 of S3I-201 on Colo-357 cells): 20 µM; viable cell numbers (fluorescent unit, FU) [6]: decreased viable cell numbers; sensitivity of Panc-1 and Colo-357 cells to ZD and Das ([6]; co-treatment with S3I-201, 48 h): increased the sensitivity; IC50 ([7]; PANC-1, 48 h, read-out: IC50 of S3I-201 on Panc-1 cells): 15 µM"
rebounded,early repression,inhibited,,,"COc1cc2ncnc(Nc3ccc(F)c(Cl)c3)c2cc1OCCCN1CCOCC1 [ZD, Gefitinib]",not EGFR inhibition (by ZD) resulted in reduced colony numbers,minimally affected,minimal effect,decreased viable cell numbers,neither of which was significantly affected,"number of viable Panc-1 cells ([4]; ZD, 96 h (Day 4), Panc-1): decreased; cell viability ([6]; 1 μM ZD for 48 h): minimal effect"

Compound,constitutive Stat3 DNA-binding activity [1],constitutively-active Stat3 DNA-binding activity [1],Stat3 DNA-binding activity [2],"IC50 [5, 11]","IC50 [7, 13]",colony numbers [3],"cell viability (viable cell count) [4, 10]",cell viability (viable cell count) ([4]; treatment for 48 to 96 h),"viable cell numbers (fluorescent unit, FU) [6, 12]",pErk1/pErk2MAPK and pAkt levels [8],further results
"N#C/C(=C\c1ccc(O)c(O)c1)C(=O)NCc1ccccc1 [AG490, Tyrphostin AG490]",abolished,no effect,,,,,,,,,

# — US8685941B2, “Drug composition cytotoxic for pancreatic cancer cells” (University of Central Florida Research Foundation, Inc., priority 2008, dated 2014)
